# Target: T1, human SK3 channel (hKCa2.3) (Homo sapiens, UniProt Q9UGI6)
# T1 construct: expressed in transfected cells
# Test: Automated whole cell patch-clamp (QPatch 16 HT), inhibition of SK3 current
# Type: cell-based
# Conditions: HEK-293 cells stably expressing hKCa2.3; symmetrical K+ solutions, free calcium 400 nM; effects normalized to N-methyl bicuculline
# Method in brief: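 HEK-293 cells stably expressing hKCa2.3, automated whole-cell patch clamp in symmetrical K+ (400 nM free intracellular Ca2+, pH 7.2; external pH 7.4). Held at 0 mV, ramps −80 to +80 mV (200 ms) every 5 s; increasing compound concentrations, currents run-down corrected and normalized to 100 μM N-methyl bicuculline; IC50 reported.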
row,Compound,IC50
1,"O=C(CC(Nc1nc2ccccc2[nH]1)c1cccc(OC(F)(F)F)c1)NCCOC(F)(F)F (stereo not drawn) [Example 83, 3-[(1H-1,3-benzodiazol-2-yl)amino]-N-[2-(trifluoromethoxy)ethyl]-3-[3-(trifluoromethoxy)phenyl]propanamide]",< 10 µM
2,"COCCNC(=O)CC(Nc1nc2ccccc2[nH]1)c1cccc(OC(F)(F)F)c1 (stereo not drawn) [Example 84, 3-[(1H-1,3-benzodiazol-2-yl)amino]-N-(2-methoxyethyl)-3-[3-(trifluoromethoxy)phenyl]propanamide]",< 10 µM
3,"N#CCNC(=O)CC(Nc1nc2ccccc2[nH]1)c1cccc(OC(F)(F)F)c1 (stereo not drawn) [Example 85, 3-[(1H-1,3-benzodiazol-2-yl)amino]-N-(cyanomethyl)-3-[3-(trifluoromethoxy)phenyl]propanamide]",< 10 µM
4,"Cc1cc(C(CC(=O)NCC#N)Nc2nc3ccccc3[nH]2)cc(C)c1F (stereo not drawn) [Example 86, 3-[(1H-1,3-benzodiazol-2-yl)amino]-N-(cyanomethyl)-3-(4-fluoro-3,5-dimethylphenyl)propanamide]",< 10 µM
5,"COCCNC(=O)CC(Nc1nc2ccccc2[nH]1)c1cccc(SC2CCC2)c1 (stereo not drawn) [Example 87, 3-[(1H-1,3-benzodiazol-2-yl)amino]-3-[3-(cyclobutylsulfanyl)phenyl]-N-(2-methoxyethyl)propanamide]",< 10 µM
6,"O=C(CC(Nc1nc2ccccc2[nH]1)c1cccc(OC(F)(F)F)c1)NCc1ccon1 (stereo not drawn) [Example 88, 3-[(1H-1,3-benzodiazol-2-yl)amino]-N-(1,2-oxazol-3-ylmethyl)-3-[3-(trifluoromethoxy)phenyl]propanamide]",< 10 µM
7,"O=C(CC(Nc1nc2ccccc2[nH]1)c1cccc(SC(F)(F)F)c1)NCc1nc2ccccc2o1 (stereo not drawn) [Example 89, 3-[(1H-1,3-benzodiazol-2-yl)amino]-N-(1,3-benzoxazol-2-ylmethyl)-3-{3-[(trifluoromethyl)sulfanyl]phenyl}propanamide]",< 10 µM
8,"O=C(CC(Nc1nc2ccccc2[nH]1)c1cccc(OC(F)(F)F)c1)NCc1nc2ccccc2o1 (stereo not drawn) [Example 90, 3-[(1H-1,3-benzodiazol-2-yl)amino]-N-(1,3-benzoxazol-2-ylmethyl)-3-[3-(trifluoromethoxy)phenyl]propanamide]",< 10 µM
9,"COCCNC(=O)CC(C)(Nc1nc2cc(F)ccc2[nH]1)c1cccc(C(F)(F)F)c1 (stereo not drawn) [Example 91, 3-[(5-fluoro-1H-1,3-benzodiazol-2-yl)amino]-N-(2-methoxyethyl)-3-[3-(trifluoromethyl)phenyl]butanamide]",< 10 µM
10,"COCCNC(=O)CC(Nc1nc2ccccc2[nH]1)c1cccc(SC)c1 (stereo not drawn) [Example 92, 3-[(1H-1,3-benzodiazol-2-yl)amino]-N-(2-methoxyethyl)-3-[3-(methylsulfanyl)phenyl]propanamide]",< 10 µM
11,"COCCNC(=O)CC(Nc1nc2c(OC)cccc2[nH]1)c1cccc(C(F)(F)F)c1 (stereo not drawn) [Example 93, 3-[(4-methoxy-1H-1,3-benzodiazol-2-yl)amino]-N-(2-methoxyethyl)-3-[3-(trifluoromethyl)phenyl]propanamide]",< 10 µM
12,"O=C(CC(Nc1nc2c(CO)cccc2[nH]1)c1cccc(C(F)(F)F)c1)NCCOC(F)(F)F (stereo not drawn) [Example 94, 3-{[4-(hydroxymethyl)-1H-1,3-benzodiazol-2-yl]amino}-N-[2-(trifluoromethoxy)ethyl]-3-[3-(trifluoromethyl)phenyl]propanamide]",< 10 µM
13,"COCCNC(=O)CC(Nc1nc2cc(F)c(F)cc2[nH]1)c1cccc(C(F)(F)F)c1 (stereo not drawn) [Example 95, 3-[(5,6-difluoro-1H-1,3-benzodiazol-2-yl)amino]-N-(2-methoxyethyl)-3-[3-(trifluoromethyl)phenyl]propanamide]",10 to 100 µM
14,"COCCNC(=O)CC(Nc1nc2c(C)c(F)ccc2[nH]1)c1cccc(C(F)(F)F)c1 (stereo not drawn) [Example 96, 3-[(5-fluoro-4-methyl-1H-1,3-benzodiazol-2-yl)amino]-N-(2-methoxyethyl)-3-[3-(trifluoromethyl)phenyl]propanamide]",10 to 100 µM

# The next lines start with the values.
row,IC50,Compound
1,< 10 µM,"Cc1cccc(C(C)NC(=O)CC(Nc2nc3ccccc3[nH]2)c2cccc(C(F)(F)F)c2)n1 (stereo not drawn) [Example 76, 3-[(1H-1,3-benzodiazol-2-yl)amino]-N-[1-(6-methylpyridin-2-yl)ethyl]-3-[3-(trifluoromethyl)phenyl]propanamide]"
2,< 10 µM,"Cc1ncc(CNC(=O)CC(Nc2nc3ccccc3[nH]2)c2cccc(C(F)(F)F)c2)s1 (stereo not drawn) [Example 77, 3-[(1H-1,3-benzodiazol-2-yl)amino]-N-[(2-methyl-1,3-thiazol-5-yl)methyl]-3-[3-(trifluoromethyl)phenyl]propanamide]"
3,< 10 µM,"O=C(CC(Nc1nc2ccccc2[nH]1)c1cccc(C(F)(F)F)c1)NCc1cncnc1 (stereo not drawn) [Example 78, 3-[(1H-1,3-benzodiazol-2-yl)amino]-N-(pyrimidin-5-ylmethyl)-3-[3-(trifluoromethyl)phenyl]propanamide]"
4,< 10 µM,"Cc1cc(CNC(=O)CC(Nc2nc3ccccc3[nH]2)c2cccc(C(F)(F)F)c2)ccn1 (stereo not drawn) [Example 79, 3-[(1H-1,3-benzodiazol-2-yl)amino]-N-[(2-methylpyridin-4-yl)methyl]-3-[3-(trifluoromethyl)phenyl]propanamide]"
5,< 10 µM,"COCCNC(=O)CC(Nc1nc2ccccc2[nH]1)c1cc(C)c(F)c(C)c1 (stereo not drawn) [Example 80, 3-[(1H-1,3-benzodiazol-2-yl)amino]-3-(4-fluoro-3,5-dimethylphenyl)-N-(2-methoxyethyl)propanamide]"
6,< 10 µM,"O=C(CC(Nc1nc2ccccc2[nH]1)c1cccc(SC(F)(F)F)c1)NCCOC(F)(F)F (stereo not drawn) [Example 81, 3-[(1H-1,3-benzodiazol-2-yl)amino]-N-[2-(trifluoromethoxy)ethyl]-3-{3-[(trifluoromethyl)sulfanyl]phenyl}propanamide]"
7,< 10 µM,"COCCNC(=O)CC(Nc1nc2ccccc2[nH]1)c1cccc(SC(F)(F)F)c1 (stereo not drawn) [Example 82, 3-[(1H-1,3-benzodiazol-2-yl)amino]-N-(2-methoxyethyl)-3-{3-[(trifluoromethyl)sulfanyl]phenyl}propanamide]"
